Test results from patent US12698308B2, “Peptide for preventing or treating inflammatory diseases” (AJOU UNIVERSITY INDUSTRY-ACADEMIC COOPERATION FOUNDATION, priority 2021, dated 2026).
Ends that are not written are not given here.

Tests used:
[1] = test system: mice with Behçet's disease; experiment: Skin symptom improvement in mice with Behçet's disease; assay type: in vivo; details: external agent on skin, 1 μg/mouse once a day for 10 days; FIG. 6
Procedure: After applying the peptide-including external agent used in the Experimental Example 5 to the skin of mice with Behçet's disease, changes in the symptom improvement were checked. Administration was performed by 1 μg/mouse once a day for 10 days.

IL-17 = experiment: Genetic analysis via real-time PCR in vitro, cytokine expression in cultured cells; assay type: cell-based, mouse; details: for cytokine IL-17 in the lymph node: FIG. 2E; for cytokine IL-17 in the spleen: peptide treatment 24 hours, FIG. 2A
Procedure: (§1) While culturing spleen cells isolated from the spleen of 4-week-old male ICR mice weighing 25 g, various types of peptides having lipidized at terminus of the peptides were treated to cells, and changes in cytokine expression were observed via real-time PCR. Spleen cell isolation was performed by cutting out the spleen from mice, placing the spleen on a cell filter, crushing the spleen on a Petri dish through the cell filter using the plunger tip of a syringe, rinsing the cell filter with PBS, and transferring the suspended cells to 15 mL conical tube. Cells were centrifuged at 4° C. and 800×g for 5 minutes. Subsequently, the supernatant was discarded, and the pellets were resuspended in 1 mL of ACK buffer (ammonium-chloride-potassium lysing buffer). After leaving at room temperature for 5 to 10 minutes, […] of PBS at 4° C. was added, and the cells were centrifuged again at 4° C. and 800×g for 5 minutes. The supernatant was discarded again, the pellets were resuspended in 5 mL of culture, and 2×10^6 cells/mL were cultured in DMEM medium. Before culturing spleen cells in an incubator, 1 μg/mL anti-CD3 Ab was coated on the bottom of a culture container, after 24 hours, culture was performed for 3 days in DMEM medium including 1 μg of anti-CD28 Ab, 20 ng of IL-6, 5 ng of TGF beta, and 20 ng of IL-23 per 1 mL of culture medium, and then the peptides were treated, followed by culture for another 24 hours.

TNF-alpha = experiment: as above; assay type: cell-based, mouse; details: for cytokine TNF-alpha in the spleen: peptide treatment 24 hours, FIG. 2C; for cytokine TNF-alpha in the lymph node: FIG. 2G
Procedure: as §1

IL-1 beta = experiment: as above; assay type: cell-based, mouse; details: for cytokine IL-1 beta in the spleen: peptide treatment 24 hours, FIG. 2D; for cytokine IL-1 beta in the lymph node: FIG. 2H
ROR-gammaT gene = experiment: Genetic analysis via real-time PCR in vitro, gene expression in cultured cells; assay type: cell-based, mouse; details: for expression of ROR-gammaT gene in the lymph node: FIG. 2F
Procedure: as §1

[2] = test system: arthritis model mice (collagen induced arthritis, CIA); experiment: Ankle thickness in collagen induced arthritis (CIA) mice; assay type: in vivo, mouse; details: at day 30, compared to arthritis mice (control) without receiving peptides; FIGS. 9A-9B
Procedure: (§2) Collagen was mixed with an adjuvant and injected subcutaneously into the tail twice (Day 1 and Day 11) to prepare arthritis model mice. The adjuvant is a mixture of 17 μL of high-concentration paraffin oil (Fisher, cat. no. 0122-1) and 68 μg (17 μL) of complete Freund adjuvant (CFA; Sigma-Aldrich, cat. no. F5881), which was used by mixing with 34 μg (17 μL) of bovine type II collagen (MD bioproducts cat. no. 804001-Sol). From the day after the second collagen injection (day 12), 1 μg (100 μL) of peptide was administered intramuscularly to the hind legs 10 times (once every 2 days), and mouse peripheral blood cells were isolated to analyze the frequency of Ly6G+ cells via flow cytometry. Peripheral blood cells were isolated from mouse hearts, red blood cells were lysed in ACK buffer (ammonium-chloride-potassium lysing buffer), and then centrifugation was performed to collect only blood cells to be used for antibody staining for the analysis with the flow cytometer. Using Ly6G+ as a neutrophil marker, whether the peptide inhibits a frequency of inflammation-induced neutrophil cells in an arthritis model was determined. Methotrexate (MTX) was used as a control drug.
Since the thickness of the ankle increases due to edema caused by arthritis, the ankle thickness was measured to determine whether peptide administration may relieve edema caused by inflammation. The ankle thickness was measured with a digital caliper at the thickest part of the ankle.

Ly6G+ (neutrophil) cells = experiment: Frequency of Ly6G+ (neutrophil) cells in peripheral blood of collagen induced arthritis (CIA) mice; assay type: in vivo, mouse; details: 1 μg intramuscularly 10 times (once every 2 days), FIG. 8
Procedure: as §2

Substance	skin symptom improvement [1]	cytokine IL-17 in the lymph node (IL-17)	cytokine IL-17 in the spleen (IL-17)	cytokine TNF-alpha in the spleen (TNF-alpha)	cytokine IL-1 beta in the spleen (IL-1 beta)	cytokine TNF-alpha in the lymph node (TNF-alpha)	cytokine IL-1 beta in the lymph node (IL-1 beta)	expression of ROR-gammaT gene in the lymph node (ROR-gammaT gene)	expression of ROR-gammaT gene in the spleen (ROR-gammaT gene; spleen, peptide treatment 24 hours, FIG. 2B)	thickness of the ankle [2]	frequency of Ly6G+ cells (Ly6G+ (neutrophil) cells)
GCAATCPEAKPREIVECCSTDKCNH (SEQ ID NO: 7) (E4) [Peptide E4]	almost disappeared after 10 days, and the wound healed										
P2M: P2 peptide (SEQ ID NO: 2) with myristoylation, component of P124-M (YCNKVHTCRNG; cysteine pairing not given here; also: myristoylation) [Peptide P2M]		reduced	reduced	reduced							
P4M: P4 peptide (SEQ ID NO: 3) with myristoylation, component of P124-M (HTCRNGENICF; cysteine pairing not given here; also: myristoylation) [Peptide P4M]		reduced		reduced	reduced						
TCPEAKPREIVECCSTDKCNH (SEQ ID NO: 6) (E3) [Peptide E3]		reduced	reduced	reduced	reduced	reduced	reduced	reduced	reduced	significantly reduced	
LTCLICPEKYCNKVHTCRNGENICF (SEQ ID NO: 5) (E2) [Peptide E2]	improved the skin erythema	reduced	reduced	reduced	reduced	reduced		reduced		significantly reduced	
LICPEKYCNKVHTCRNGENICF (SEQ ID NO: 4) (E1) [Peptide E1]	the symptom almost disappeared after 10 days	reduced	reduced	reduced	reduced		reduced	reduced		significantly reduced	decreased to a statistically significant level
P1M: P1 peptide (SEQ ID NO: 1) with myristoylation, component of P124-M (LICPEKYCNKVHT; cysteine pairing not given here; also: myristoylation) [Peptide P1M]					reduced						
